From patent US20240173347A1, “COMPOSITIONS FOR RAISING NAD LEVELS AND METHODS AND USES THEREOF” (ACCURI, LLC, priority 2022, published 2024) come the findings set out here.

This assay relates to intracellular NAD. Kind of assay: Intracellular NAD levels in users before and after supplementation. To be noted: intravenous infusion, 5 sessions of 750 mg. The assay is classed as in vivo, human.

Consider `NC(=O)c1ccc[n+]([C@@H]2O[C@H](COP(=O)([O-])OP(=O)(O)OC[C@H]3O[C@@H](n4cnc5c(N)ncnc54)[C@H](O)[C@@H]3O)[C@@H](O)[C@H]2O)c1` [NAD+, Nicotinamide adenine dinucleotide], for which the “Effect on intracellular NAD levels” value is reported as “does not increase”.
